Experimental data published in patent EP4725941A1, “ARYLAMIDE DERIVATIVE HAVING ANTITUMOR ACTIVITY” (priority 2020, dated 2021).
Where two headings read alike, the source gives them in different places.

What was measured:
[1] = test system: HCT-116; test: HCT-116 growth-inhibiting activity; assay type: cell-based; settings: Table 1, human cancer cells with RAS mutation
[2] = test system: Colo-205; test: Colo-205 growth-inhibiting activity; assay type: cell-based; settings: Table 1, human cancer cells with BRAF mutation
[3] = target: T1, BRAF (Homo sapiens, UniProt P15056); test: BRAF-inhibiting activity, time-resolved fluorescence-fluorescence resonance energy transfer assay; assay type: biochemical
T1 construct: purchased Eurofins Genomics KK; (BRAF); Thermo Fisher Scientific Inc. (MEK1)
T1 sequence (P15056 417-766 limits assumed): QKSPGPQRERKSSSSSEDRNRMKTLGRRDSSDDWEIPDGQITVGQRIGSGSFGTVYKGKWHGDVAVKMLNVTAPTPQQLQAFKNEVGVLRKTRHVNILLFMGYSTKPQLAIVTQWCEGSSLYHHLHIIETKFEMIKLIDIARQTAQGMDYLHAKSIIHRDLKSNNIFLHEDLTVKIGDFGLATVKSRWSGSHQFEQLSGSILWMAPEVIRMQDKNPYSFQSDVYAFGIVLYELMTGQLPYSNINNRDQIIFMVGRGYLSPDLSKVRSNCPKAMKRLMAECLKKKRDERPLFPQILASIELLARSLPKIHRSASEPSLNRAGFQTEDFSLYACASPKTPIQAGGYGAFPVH
Description: The BRAF-inhibiting activity of the compounds listed in Table 3 below was evaluated by the time-resolved fluorescence-fluorescence resonance energy transfer assay as described below.

[4] = target: T2, MEK1 (Homo sapiens, UniProt Q02750); test: MEK1-inhibiting activity, fluorescent polarization method (CRAF/MEK1/ERK2 cascade, IMAP); assay type: biochemical
T2 construct: purchased Thermo Fisher Scientific Inc. (MEK1, CRAF); Carna Biosciences, Inc. (ERK2)
T2 sequence (Q02750 whole entry): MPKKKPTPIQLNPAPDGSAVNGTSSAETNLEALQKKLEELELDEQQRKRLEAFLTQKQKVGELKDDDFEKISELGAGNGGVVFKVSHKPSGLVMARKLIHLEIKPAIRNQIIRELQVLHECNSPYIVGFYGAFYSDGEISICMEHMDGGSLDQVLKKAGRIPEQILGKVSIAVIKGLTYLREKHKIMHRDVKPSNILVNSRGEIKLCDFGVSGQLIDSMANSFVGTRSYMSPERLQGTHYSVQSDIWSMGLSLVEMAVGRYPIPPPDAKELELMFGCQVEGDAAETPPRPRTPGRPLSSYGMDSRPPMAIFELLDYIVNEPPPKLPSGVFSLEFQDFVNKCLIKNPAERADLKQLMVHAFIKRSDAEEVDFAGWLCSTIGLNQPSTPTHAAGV

[5] = test system: A549; test: Cell proliferation-inhibiting activity (ATP in viable cells, CellTiter-Glo), A549; assay type: cell-based, human; settings: A549, 96 h; human lung cancer cells, 4 days; read-out: A549 IC50
[6] = Human liver microsome stability; assay type: in vitro ADME; settings: human liver microsomes, pH 7.4
[7] = test system: NCI-H2122; test: Cell proliferation-inhibiting activity (ATP in viable cells, CellTiter-Glo), NCI-H2122; assay type: cell-based, human; settings: NCI-H2122, 96 h; human lung cancer cells, 4 days; read-out: NCI-H2122 IC50
[8] = test system: Calu-6; test: Cell proliferation-inhibiting activity (ATP in viable cells, CellTiter-Glo), Calu-6; assay type: cell-based, human; settings: Calu-6, 96 h; human lung cancer cells, 4 days; read-out: Calu-6 IC50
[9] = target: T2, MEK1; test: MEK1-inhibiting activity, fluorescent polarization method (CRAF/MEK1/ERK2 cascade, IMAP); assay type: biochemical; settings: Table 3; read-out: MEK1 IC50
Description: The MEK1-inhibiting activity of the compounds listed in Table 3 below were evaluated by the fluorescent polarization method as described below.

SMILES	IC50 [1] [µM]	IC50 [2] [nM]	IC50 ([3]; Table 1; read-out: BRAF IC50) [nM]	IC50 ([4]; Table 1) [nM]	IC50 [5] [nM]	microsomal CLint at 0.99 µM [6] [µL/min/mg]	IC50 [7] [nM]	IC50 ([3]; Table 3; read-out: BRAF IC50) [nM]	IC50 ([4]; Table 3) [nM]	IC50 [8] [nM]	IC50 ([3]; read-out: BRAF IC50; Table 3) [nM]	IC50 [9] [nM]
CNS(=O)(=O)NCC(=O)N(Cc1cc(C(=O)NOCCO)c(Nc2ccc(I)cc2F)c(F)c1F)OC [AA-1, 3,4-Difluoro-2-(2-fluoro-4-iodoanilino)-N-(2-hydroxyethoxy)-5-[[methoxy-[2-(methylsulfamoylamino)acetyl]amino]methyl]benzamide]	0.002	0.4	3	21	–	–	–	–	–	–	–	–
CNS(=O)(=O)Nc1cccc(Cc2c(CC(=O)NOCCO)c3ccc(Oc4ncccn4)cc3oc2=O)c1F [AA-2, 2-[3-[[2-Fluoro-3-(methylsulfamoylamino)phenyl]methyl]-2-oxo-7-pyrimidin-2-yloxychromen-4-yl]-N-(2-hydroxyethoxy)acetamide]	45	–	2200	> 8000	–	–	–	–	–	–	–	–
CNS(C)(=O)=Nc1nccc(Cc2cc(C(N)=O)c(Nc3ccc(I)cc3F)c(F)c2F)c1F (stereo not drawn) [Compound A-43, 3,4-Difluoro-2-(2-fluoro-4-iodoanilino)-5-[[3-fluoro-2-[[methyl-(methylamino)-oxo-λ6-sulfanylidene]amino]pyridin-4-yl]methyl]benzamide]	–	–	–	–	2	37	13	10	41	–	–	–
CNS(=O)(=O)Nc1nccc(Cc2cc(C(N)=O)c(Nc3ccc4sccc4c3F)c(F)c2F)c1F [Compound H-3, 3,4-difluoro-2-[(4-fluoro-1-benzothiophen-5-yl)amino]-5-[[3-fluoro-2-(methylsulfamoylamino)pyridin-4-yl]methyl]benzamide]	–	–	–	–	–	149	–	4	2	–	–	–
CNS(=O)(=O)Nc1cccc(Cc2cc(C(N)=O)c(Nc3ccc(I)cc3F)n(C)c2=O)c1F [Compound K-1, 2-(2-Fluoro-4-iodoanilino)-5-[[2-fluoro-3-(methylsulfamoylamino)phenyl]methyl]-1-methyl-6-oxopyridine-3-carboxamide]	–	–	–	–	3	97	4	–	–	14	3	55
CCNS(=O)(=O)Nc1cccc(Cc2cc(C(N)=O)c(Nc3ccc(I)cc3F)n(C)c2=O)c1F [Compound K-2, 5-[13-(Ethylsulfamoylamino)-2-fluorophenyl|methyl]-2-(2-fluoro-4-iodoanilino)-1-methyl-6-oxopyridine-3-carboxamide]	–	–	–	–	6	234	6	–	–	27	4	73
Cn1c(Nc2ccc(I)cc2F)c(C(N)=O)cc(Cc2cccc(NS(=O)(=O)NC3CC3)c2F)c1=O [Compound K-3, 5-[[3-(Cyclopropylsulfamoylamino)-2-fluorophenyl]methyl]-2-(2-fluor o-4-iodoanilino)-1-methyl-6-oxopyridine-3-carboxamide]	–	–	–	–	9	247	10	–	–	31	5	84
CNS(=O)(=O)Nc1cccc(Cc2cc(C(=O)NC3CC3)c(Nc3ccc(I)cc3F)n(C)c2=O)c1F [Compound K-4, N-Cyclopropyl-2-(2-fluoro-4-iodoanilino)-5-[[2-fluoro-3-(methylsulfamoylamino)phenyl]methyl]-1-methyl-6-oxopyridine-3-carboxamide]	–	–	–	–	6	129	5	–	–	25	11	106
Cn1c(Nc2ccc(I)cc2F)c(C(=O)NC2CC2)cc(Cc2cccc(NS(=O)(=O)NC3CC3)c2F)c1=O [Compound K-5, N-Cyclopropyl-5-[[3-(cyclopropylsulfamoylamino)-2-fluorophenyl]methyl]-2-(2-fluoro-4-iodoanilino)-1-methyl-6-oxopyridine-3-carboxamide]	–	–	–	–	25	245	23	–	–	110	9	139
Cn1c(Nc2ccc(I)cc2F)c(C(N)=O)cc(Cc2cccc(NS(=O)(=O)C3(C)CC3)c2F)c1=O [Compound K-6, 2-(2-Fluoro-4-iodoanilino)-5-[[2-fluoro-3-[(1-methylcyclopropyl)sulfonylamino]phenyl]methyl]-1-methyl-6-oxopyridine-3-carboxamide]	–	–	–	–	25	499	21	–	–	83	15	227
CONC(=O)c1cc(Cc2cccc(NS(=O)(=O)C3(C)CC3)c2F)c(=O)n(C)c1Nc1ccc(I)cc1F [Compound K-7, 2-(2-Fluoro-4-iodoanilino)-5-[[2-fluoro-3-[(1-methylcyclopropyl)sulfonylamino]phenyl]methyl]-N-methoxy-1-methyl-6-oxopyridine-3-carboxamide]	–	–	–	–	9	357	7	–	–	27	14	31
CCS(=O)(=O)Nc1cccc(Cc2cc(C(N)=O)c(Nc3ccc(I)cc3F)n(C)c2=O)c1F [Compound K-10, 5-[[3-(Ethylsulfonylamino)-2-fluorophenyl]methyl]-2-(2-fluoro-4-iodoanilino)-1-methyl-6-oxopyridine-3-carboxamide]	–	–	–	–	25	69	16	–	–	81	8	128
Cn1c(Nc2ccc(I)cc2F)c(C(=O)NC2CC2)cc(Cc2cccc(NS(=O)(=O)C3(C)CC3)c2F)c1=O [Compound K-11, N-Cyclopropyl-2-(2-fluoro-4-iodoanilino)-5-[[2-fluoro-3-[(1-methylcyclopropyl)sulfonylamino]phenyl]methyl]-I-methyl-6-oxopyridine-3-carb oxamide]	–	–	–	–	93	437	85	–	–	230	15	278
Cn1c(Nc2ccc(I)cc2F)c(C(=O)NOC(C)(C)C)cc(Cc2cccc(NS(=O)(=O)C3(C)CC3)c2F)c1=O [Compound K-12, 2-(2-Fluoro-4-iodoanilino)-5-[2-fluoro-3-[(1-methylcyclopropyl)sulfonylamino]phenyl]methyl]-1-methyl-N-[(2-methylpropan-2-yl)oxyl-6-oxo pyridine-3-carboxamide]	–	–	–	–	7	546	6	–	–	27	14	10
CCNS(=O)(=O)Nc1cccc(Cc2cc(C(=O)NC3CC3)c(Nc3ccc(I)cc3F)n(C)c2=O)c1F [Compound K-13, N-Cyclopropyl-5-[[3-(ethylsulfamoylamino)-2-fluorophenyl]methyl]-2-(2-fluoro-4-iodoanilino)-1-methyl-6-oxopyridine-3-carboxamide]	–	–	–	–	18	321	13	–	–	53	9	115
CNS(=O)(=O)Nc1nccc(Cc2cc(C(N)=O)c(Nc3ccc(I)cc3F)cn2)c1F [Compound L-1, 5-(2-Fluoro-4-iodoanilino)-2-[[3-fluoro-2-(methylsulfamoylamino)pyridin-4-yl]methyl]pyridine-4-carboxamide]	–	–	–	–	21	10	17	2	6	41	–	–
CNS(=O)(=O)Nc1nccc(Cc2cc(C(N)=O)c(Nc3ccc(I)cc3F)n3cncc23)c1F [Compound M-1, 5-(2-Fluoro-4-iodoanilino)-8-[[3-fluoro-2-(methylsulfamoylamino)pyridin-4-yl]methyl]imidazo[1,5-a]pyridine-6-carboxamide]	–	–	–	–	27	59	13	–	–	28	4	5
CNS(=O)(=O)Nc1cccc(Oc2cc(F)cc(Nc3ccc(I)cc3F)c2C(N)=O)c1 [Ref-2, 4-Fluoro-2-(2-fluoro-4-iodoanilino)-6-[3-(methylsulfamoylamino)phenoxy]benzamide, reference compound]	–	–	–	–	8	12	3	–	–	35	12	364
CC(C)S(=O)(=O)Nc1cccc(Oc2cncc(Nc3ccc(I)cc3F)c2C(N)=O)c1 [Ref-3, 3-(2-Fluoro-4-iodoanilino)-5-[3-(propan-2-ylsulfonylamino)phenoxy]py ridine-4-carboxamide, reference compound]	–	–	–	–	2	11	1	–	–	10	12	5
